Data as given in ChEMBL document CHEMBL1128316, “Alkane-6,8-diol: inhibitor of tumor promotion in two-stage carcinogenesis in mouse skin” (1995).

What was measured:
[1] = system: Mus musculus; assay: Inhibition of TPA-induced inflammatory ear edema in mice(compound was applied 30 min before TPA […],Ear thickness was determined 6 hr after TPA treatment); type: functional
[2] = Inhibitory ratio at 1.0 mg/ear; type: functional

Compound | ID50 [1] [mg ear-1] | Ratio [2]
O=c1c(O)c(-c2ccc(O)c(O)c2)oc2cc(O)cc(O)c12 [QUERCETIN] | 1.6 | <40
CCCCCCCC(O)CC(O)CCCCC (stereo unspecified) | – | 23
COc1ccc2c(c1)c(CC(=O)O)c(C)n2C(=O)c1ccc(Cl)cc1 [INDOMETHACIN] | 0.3 | <96
CCCCCCCCCCCCCCCCCCCCCC(O)CC(O)CCCCC (stereo unspecified) | 0.4 | <85
C[C@]12CCC(=O)C=C1CCC1[C@@H]2[C@@H](O)C[C@@]2(C)[C@H]1CC[C@]2(O)C(=O)CO (single isomer, unassigned) [HYDROCORTISONE] | 0.03 | <99
CCCCCCCCCCCCCCCCCCCC(O)CC(O)CCCCC (stereo unspecified) | 0.5 | <82
